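How tested: cells in 96-well plates exposed to compound for 48 hours at five concentrations. Abbreviation: GI50, concentration required for 50% inhibition of growth.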 Calls of active or inactive are those of the source. Cut-off read from the data, not from the text of the source: active = GI50 up to about 1.1 µM and inactive = higher.
Assays:
Assay in all cases: DTP human tumour cell line panel, 48 h
[1] = tested on: CAKI-1
[2] = tested on: NCI-H23
[3] = tested on: DU-145
[4] = tested on: T47D
[5] = tested on: RPMI-8226
[6] = tested on: SN12C
[7] = tested on: SF-295
[8] = tested on: PC-3
[9] = tested on: IGROV-1
[10] = tested on: RXF 393
[11] = tested on: MDA-MB-231
[12] = tested on: COLO 205
[13] = tested on: ACHN
[14] = tested on: MDA-MB-435
[15] = tested on: SK-MEL-5
[16] = tested on: HOP-92
[17] = tested on: NCI-H522

Measured: GI50

CNC(=O)c1nnn(Cc2ccccc2)c1S
inactive: [1] > 100 µM | [2] > 100 µM | [3] > 100 µM | [4] > 100 µM | [5] > 100 µM | [6] > 100 µM | [7] > 100 µM | [8] > 100 µM | [9] > 100 µM | [10] > 100 µM | [11] > 100 µM | [12] > 100 µM | [13] > 100 µM | [14] > 100 µM | [15] > 100 µM

COC(=O)C(=O)C(C(=O)C(=O)Nc1ccc(C)cc1)c1nc2ccc(C(=O)c3ccccc3)cc2nc1O (stereo not drawn)
inactive: [1] 39.4 µM | [2] > 100 µM | [4] 79.4 µM | [5] > 100 µM | [6] > 100 µM | [16] > 100 µM | [7] 65 µM | [17] 30.5 µM | [8] 43.7 µM | [9] > 100 µM | [10] 55 µM | [11] > 100 µM | [13] > 100 µM | [14] 47.3 µM | [15] 73.1 µM

O=C1NC(Cc2ccc(O)cc2)C(=O)NC1Cc1ccc(O)cc1 (stereo not drawn)
inactive: [1] > 100 µM | [2] > 100 µM | [3] 24.8 µM | [5] > 100 µM | [6] 27.1 µM | [16] > 100 µM | [7] > 100 µM | [17] > 100 µM | [8] > 100 µM | [9] > 100 µM | [10] > 100 µM | [11] > 100 µM | [12] > 100 µM | [13] > 100 µM | [14] > 100 µM | [15] > 100 µM

C(=N\c1ccc(-c2nc3ccccc3[nH]2)cc1)/c1ccc[nH]1
inactive: [1] > 100 µM | [2] > 100 µM | [3] > 100 µM | [4] 40.3 µM | [5] 37.8 µM | [6] 63.2 µM | [16] > 100 µM | [17] 35 µM | [8] 70.8 µM | [9] > 100 µM | [10] 76.2 µM | [12] 41.3 µM | [13] > 100 µM | [14] 41.8 µM | [15] 30.3 µM

Cc1cn(CC2=NCC(C)(C)N2)c(=O)[nH]c1=O
inactive: [2] > 100 µM | [3] > 100 µM | [4] > 100 µM | [5] > 100 µM | [6] > 100 µM | [16] > 100 µM | [7] > 100 µM | [17] > 100 µM | [8] > 100 µM | [9] > 100 µM | [10] > 100 µM | [11] > 100 µM | [12] > 100 µM | [13] > 100 µM | [15] > 100 µM

CC(N)(Cc1c[nH]c2ccccc12)C(=O)O (stereo not drawn)
inactive: [1] > 100 µM | [2] > 100 µM | [3] > 100 µM | [4] > 100 µM | [5] > 100 µM | [6] > 100 µM | [7] > 100 µM | [17] > 100 µM | [8] > 100 µM | [9] > 100 µM | [10] > 100 µM | [11] > 100 µM | [12] > 100 µM | [13] > 100 µM | [14] > 100 µM | [15] > 100 µM

COc1cc(/C=C2/SC(c3ccccc3)N(c3ccc(NC(C)=O)cc3)C2=O)cc(OC)c1OC (stereo not drawn)
inactive: [1] > 100 µM | [2] > 100 µM | [3] > 100 µM | [4] 84.3 µM | [5] 36.8 µM | [6] > 100 µM | [16] 37.3 µM | [7] 61.2 µM | [17] 28.1 µM | [10] 64.4 µM | [11] > 100 µM | [12] > 100 µM | [13] > 100 µM | [14] 66.4 µM | [15] 34.4 µM

CCc1nnc(CC)n1-n1c(Cc2ccccc2)n[nH]c1=O
inactive: [2] > 100 µM | [3] > 100 µM | [5] > 100 µM | [6] > 100 µM | [16] > 100 µM | [7] > 100 µM | [17] > 100 µM | [8] > 100 µM | [9] > 100 µM | [10] > 100 µM | [11] > 100 µM | [12] > 100 µM | [13] > 100 µM | [14] > 100 µM | [15] > 100 µM

CC(C)OCC1CC(CC(=O)Nc2nncs2)C(=O)O1 (stereo not drawn)
inactive: [1] > 100 µM | [2] > 100 µM | [3] > 100 µM | [4] > 100 µM | [5] > 100 µM | [6] > 100 µM | [16] > 100 µM | [7] > 100 µM | [8] > 100 µM | [9] > 100 µM | [11] > 100 µM | [12] > 100 µM | [13] > 100 µM | [14] > 100 µM | [15] > 100 µM

COc1cc2c(c(OC)c1)/C(=C/Sc1ccccc1)C(=O)N(C(C)(C)C)C2
inactive: [1] 32.7 µM | [2] 26.3 µM | [3] > 100 µM | [4] 26.7 µM | [5] 26.1 µM | [6] 24 µM | [16] 1.41 µM | [7] 27.2 µM | [8] 22.4 µM | [9] 22.3 µM | [11] 23.4 µM | [12] 26.2 µM | [13] 35.3 µM | [14] 22.2 µM | [15] 17.5 µM

CC(O)=NC(Cc1ccc2ccccc2c1)C(O)=NC(Cc1ccc(Cl)cc1)C(O)=NC(Cc1c[nH]c2ccccc12)C(O)=NC(CO)C(O)=NC(Cc1ccc(O)cc1)C(O)=NC(CCCN=C(N)N)C(O)=NC(CC(C)C)C(O)=NC(CCCN=C(N)N)C(=O)N1CCCC1C(O)=NC(C)C(=N)O (stereo not drawn)
inactive: [1] 54.7 µM | [2] 31.3 µM | [3] 26.5 µM | [5] > 100 µM | [6] 37.5 µM | [16] 35.5 µM | [7] 27.9 µM | [17] 45.9 µM | [8] 32.3 µM | [9] 33.7 µM | [10] 37.1 µM | [11] 59.7 µM | [12] 26.3 µM | [13] 15 µM | [14] 40.1 µM | [15] 34.5 µM

COc1ccc(C23OCC(Cc4cc(OC)c(OC)cc42)C3CO)cc1OC (stereo not drawn)
inactive: [1] > 100 µM | [2] > 100 µM | [3] > 100 µM | [4] > 100 µM | [5] > 100 µM | [7] > 100 µM | [17] > 100 µM | [8] > 100 µM | [10] > 100 µM | [11] > 100 µM | [12] > 100 µM | [13] > 100 µM | [14] > 100 µM | [15] > 100 µM

CCOC(=O)Cc1cc(=O)oc2cc(O)ccc12
inactive: [1] > 100 µM | [2] > 100 µM | [3] > 100 µM | [5] > 100 µM | [6] > 100 µM | [7] > 100 µM | [17] > 100 µM | [8] > 100 µM | [9] > 100 µM | [10] > 100 µM | [11] > 100 µM | [12] > 100 µM | [13] > 100 µM | [14] > 100 µM | [15] > 100 µM

COc1cccc(C=C2N=C(C)N(n3c(-c4ccccc4)nc4ccccc4c3=O)C2=O)c1
inactive: [1] > 100 µM | [2] > 100 µM | [3] > 100 µM | [4] > 100 µM | [5] 59 µM | [6] > 100 µM | [7] 95.5 µM | [17] > 100 µM | [8] > 100 µM | [9] > 100 µM | [11] > 100 µM | [12] > 100 µM | [13] > 100 µM | [14] > 100 µM | [15] > 100 µM

CCOC(=O)NNC(=O)NCc1ccccc1CNC(=O)NNC(=O)OCC
inactive: [1] > 100 µM | [2] > 100 µM | [3] > 100 µM | [4] > 100 µM | [5] > 100 µM | [6] > 100 µM | [17] > 100 µM | [8] > 100 µM | [9] > 100 µM | [10] > 100 µM | [11] > 100 µM | [12] > 100 µM | [14] > 100 µM | [15] > 100 µM

COC(CN(C(=O)c1ccccc1)C1CCC2(SCCS2)c2[nH]c3ccccc3c21)OC (stereo not drawn)
inactive: [1] 21 µM | [2] 58.6 µM | [3] 93.3 µM | [5] 29.6 µM | [6] 24.2 µM | [16] 7.24 µM | [7] 3.01 µM | [17] 13.9 µM | [8] 18.2 µM | [9] 40.6 µM | [10] 20.3 µM | [11] 28.9 µM | [12] 21.9 µM | [13] 27.8 µM | [14] 15.6 µM | [15] 26 µM

C=CCN(C(=O)OC(C)(C)C)[C@H](C)C(=O)N[C@@H](C)C(=O)OC
inactive: [1] > 100 µM | [2] > 100 µM | [3] > 100 µM | [4] > 100 µM | [5] > 100 µM | [6] > 100 µM | [16] > 100 µM | [7] > 100 µM | [17] > 100 µM | [8] > 100 µM | [9] > 100 µM | [11] > 100 µM | [12] > 100 µM | [13] > 100 µM | [14] > 100 µM | [15] > 100 µM
